Laboratory results reported in ChEMBL document CHEMBL1133403 (Bioorg Med Chem Lett, 2000).

Key:
[1] = molecular target: T1, Mineralocorticoid receptor (Homo sapiens, UniProt P08235); assay: Cross-reactivity as binding to human mineralocorticoid receptor (hMR); format: functional
T1 sequence (P08235 whole entry): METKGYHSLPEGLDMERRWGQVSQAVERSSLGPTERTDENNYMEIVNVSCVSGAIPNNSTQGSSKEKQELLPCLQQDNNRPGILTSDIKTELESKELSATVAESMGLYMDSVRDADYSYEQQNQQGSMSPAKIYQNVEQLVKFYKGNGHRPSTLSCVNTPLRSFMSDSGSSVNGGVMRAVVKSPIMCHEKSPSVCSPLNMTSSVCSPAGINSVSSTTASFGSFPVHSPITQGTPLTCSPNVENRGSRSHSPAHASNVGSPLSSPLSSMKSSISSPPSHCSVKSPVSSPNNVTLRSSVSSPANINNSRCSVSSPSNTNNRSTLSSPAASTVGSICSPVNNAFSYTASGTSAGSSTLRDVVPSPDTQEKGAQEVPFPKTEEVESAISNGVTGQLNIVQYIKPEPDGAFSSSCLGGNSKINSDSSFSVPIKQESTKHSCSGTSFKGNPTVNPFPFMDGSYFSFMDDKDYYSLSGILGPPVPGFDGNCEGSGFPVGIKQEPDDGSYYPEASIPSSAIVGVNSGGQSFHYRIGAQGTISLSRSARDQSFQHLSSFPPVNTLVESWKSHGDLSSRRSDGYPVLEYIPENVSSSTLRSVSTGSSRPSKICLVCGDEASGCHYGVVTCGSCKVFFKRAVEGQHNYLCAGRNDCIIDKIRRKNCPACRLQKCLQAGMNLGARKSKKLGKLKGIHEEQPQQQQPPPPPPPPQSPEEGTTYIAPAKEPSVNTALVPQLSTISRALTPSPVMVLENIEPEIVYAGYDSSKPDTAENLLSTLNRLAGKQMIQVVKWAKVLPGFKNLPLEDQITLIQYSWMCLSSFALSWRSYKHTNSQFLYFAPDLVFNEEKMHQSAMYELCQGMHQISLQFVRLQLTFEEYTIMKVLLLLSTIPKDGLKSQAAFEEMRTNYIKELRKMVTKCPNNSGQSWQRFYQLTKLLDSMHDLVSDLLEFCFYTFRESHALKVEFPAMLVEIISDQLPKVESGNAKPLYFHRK

[2] = molecular target: T2, Androgen receptor (Homo sapiens, UniProt P10275); assay: Cross-reactivity as binding to human androgen receptor (hAR); format: functional
T2 sequence (P10275 whole entry): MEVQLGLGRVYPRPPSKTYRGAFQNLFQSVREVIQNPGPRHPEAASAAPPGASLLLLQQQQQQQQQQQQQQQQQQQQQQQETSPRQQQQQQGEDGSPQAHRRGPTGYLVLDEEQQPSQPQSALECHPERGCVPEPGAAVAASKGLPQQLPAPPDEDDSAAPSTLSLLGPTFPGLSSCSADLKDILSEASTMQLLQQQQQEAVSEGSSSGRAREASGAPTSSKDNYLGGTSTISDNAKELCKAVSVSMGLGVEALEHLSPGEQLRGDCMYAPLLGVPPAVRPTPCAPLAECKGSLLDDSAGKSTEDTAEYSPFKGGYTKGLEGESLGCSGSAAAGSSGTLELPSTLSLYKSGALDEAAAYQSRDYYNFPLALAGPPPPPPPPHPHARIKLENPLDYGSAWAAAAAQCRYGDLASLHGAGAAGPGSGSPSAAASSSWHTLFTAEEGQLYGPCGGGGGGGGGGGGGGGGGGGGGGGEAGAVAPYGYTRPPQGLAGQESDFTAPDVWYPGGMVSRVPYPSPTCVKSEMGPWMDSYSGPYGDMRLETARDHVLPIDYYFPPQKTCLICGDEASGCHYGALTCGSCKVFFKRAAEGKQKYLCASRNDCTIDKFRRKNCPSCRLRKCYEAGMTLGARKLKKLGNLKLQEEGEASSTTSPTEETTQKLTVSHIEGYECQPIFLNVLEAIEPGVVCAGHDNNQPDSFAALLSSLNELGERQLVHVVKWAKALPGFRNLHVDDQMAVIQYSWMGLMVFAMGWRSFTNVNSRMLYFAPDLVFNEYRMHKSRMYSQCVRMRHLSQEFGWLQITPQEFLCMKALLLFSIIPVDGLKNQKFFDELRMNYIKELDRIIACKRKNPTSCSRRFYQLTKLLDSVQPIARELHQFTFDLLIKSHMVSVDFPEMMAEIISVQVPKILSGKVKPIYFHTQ

[3] = molecular target: T3, Mineralocorticoid receptor (Homo sapiens) (UniProt P08235); assay: Percent inhibition of mineralocorticoid receptor transcriptional activity at aldosterone EC50; format: functional
T3 sequence (whole entry): T1 sequence (P08235 whole entry)

[4] = molecular target: T4, Glucocorticoid receptor (Homo sapiens, UniProt P04150); assay: Cross-reactivity as binding to human glucocorticoid receptor (hGR); format: functional
T4 sequence (P04150 whole entry): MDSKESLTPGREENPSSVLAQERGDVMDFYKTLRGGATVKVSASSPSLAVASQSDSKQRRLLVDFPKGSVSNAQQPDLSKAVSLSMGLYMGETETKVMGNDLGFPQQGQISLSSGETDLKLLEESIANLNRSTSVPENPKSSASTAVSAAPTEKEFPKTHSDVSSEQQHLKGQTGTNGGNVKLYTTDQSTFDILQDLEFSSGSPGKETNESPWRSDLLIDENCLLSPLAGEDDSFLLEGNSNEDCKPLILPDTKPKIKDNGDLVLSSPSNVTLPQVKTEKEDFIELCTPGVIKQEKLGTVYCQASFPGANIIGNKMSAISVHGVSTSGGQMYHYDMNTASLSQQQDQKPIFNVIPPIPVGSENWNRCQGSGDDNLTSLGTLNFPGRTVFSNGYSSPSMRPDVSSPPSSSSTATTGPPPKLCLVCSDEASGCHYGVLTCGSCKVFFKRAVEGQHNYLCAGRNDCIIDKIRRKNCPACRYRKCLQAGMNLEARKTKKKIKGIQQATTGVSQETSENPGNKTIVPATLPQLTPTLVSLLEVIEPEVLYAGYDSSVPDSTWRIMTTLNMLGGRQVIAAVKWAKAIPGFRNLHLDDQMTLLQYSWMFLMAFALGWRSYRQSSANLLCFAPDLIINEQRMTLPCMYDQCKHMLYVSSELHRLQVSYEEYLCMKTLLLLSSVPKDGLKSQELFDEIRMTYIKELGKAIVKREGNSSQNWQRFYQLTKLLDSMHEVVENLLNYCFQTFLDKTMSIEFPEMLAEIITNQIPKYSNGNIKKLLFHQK

[5] = molecular target: T5, Progesterone receptor (Homo sapiens, UniProt P06401); assay: Antagonist activity against human progesterone receptor (hPR) in T47D human breast cancer cell line; format: functional, cell-based
T5 sequence (P06401 whole entry): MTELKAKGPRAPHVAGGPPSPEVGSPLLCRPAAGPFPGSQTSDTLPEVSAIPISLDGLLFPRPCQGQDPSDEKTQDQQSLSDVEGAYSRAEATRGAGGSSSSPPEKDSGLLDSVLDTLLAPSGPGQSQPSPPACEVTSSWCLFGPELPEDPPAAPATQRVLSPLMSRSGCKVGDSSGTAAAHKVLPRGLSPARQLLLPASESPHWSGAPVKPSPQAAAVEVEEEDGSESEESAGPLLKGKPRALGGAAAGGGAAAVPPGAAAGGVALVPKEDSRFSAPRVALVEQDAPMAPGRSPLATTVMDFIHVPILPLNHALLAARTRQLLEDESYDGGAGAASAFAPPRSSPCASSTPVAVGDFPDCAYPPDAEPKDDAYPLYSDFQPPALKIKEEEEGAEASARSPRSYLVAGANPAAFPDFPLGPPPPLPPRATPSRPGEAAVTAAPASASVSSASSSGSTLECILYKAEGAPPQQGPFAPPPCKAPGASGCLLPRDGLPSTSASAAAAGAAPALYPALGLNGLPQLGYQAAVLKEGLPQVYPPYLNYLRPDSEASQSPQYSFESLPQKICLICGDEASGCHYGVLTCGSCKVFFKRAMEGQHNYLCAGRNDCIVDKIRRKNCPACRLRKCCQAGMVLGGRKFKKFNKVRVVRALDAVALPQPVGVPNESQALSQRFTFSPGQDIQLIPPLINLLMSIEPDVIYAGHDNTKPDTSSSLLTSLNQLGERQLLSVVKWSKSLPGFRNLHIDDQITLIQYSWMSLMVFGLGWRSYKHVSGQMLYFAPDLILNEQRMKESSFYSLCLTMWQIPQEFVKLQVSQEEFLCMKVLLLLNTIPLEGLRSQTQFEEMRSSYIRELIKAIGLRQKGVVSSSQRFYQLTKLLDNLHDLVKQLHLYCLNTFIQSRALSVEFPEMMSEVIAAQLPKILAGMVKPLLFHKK

[6] = molecular target: T5, Progesterone receptor; assay: Human progesterone receptor (hPR) agonist activity expressed in CV-1 cells; format: functional, cell-based
[7] = molecular target: T5, Progesterone receptor; assay: Binding affinity against human progesterone receptor (hPR) in a competitive binding assay
[8] = molecular target: T6, Glucocorticoid receptor (Homo sapiens) (UniProt P04150); assay: Percent inhibition of glucocorticoid receptor transcriptional activity at Dexamethasone EC50; format: functional
T6 sequence (whole entry): T4 sequence (P04150 whole entry)

[9] = molecular target: T5, Progesterone receptor; assay: Human progesterone receptor (hPR) agonist activity in T47D human breast cancer cell line; format: functional, cell-based

For `CC1=CC(C)(C)Nc2ccc(-c3csc(C#N)c3)cc21`, the IC50 [1] was 2050 nM, the IC50 [2] was 494 nM and the Efficacy [3] was 88%. It also gave an IC50 [4] of 2600 nM, an IC50 [5] of 106 nM and an EC50 [6] of 1800 nM. The Ki [7] was 3.5 nM, the Efficacy [8] was 83% and the EC50 [9] was 245 nM.
